The values below are quoted from earlier work in patent US20200308123A1, “Novel formulation of metaxalone” (ICEUTICA PTY LTD., priority 2009, published 2020).

Read-outs that look alike come from different tables or passages of the source.

Series [1] concerns major CYP enzymes such as CYP1A2, CYP2A6, CYP2B6, CYP2C8, CYP2C9, CYP2C19, CYP2D6, CYP2E1, and CYP3A4.
Series [2] deals with Hepatic Cytochrome P450 enzymes.
Series [3] deals with major CYP enzymes such as CYP1A2, CYP2B6, and CYP3A4. The conditions noted are these: in vitro.

`Cc1cc(C)cc(OCC2CNC(=O)O2)c1` (stereo not drawn) [Metaxalone]: the “lipophilicity (log P)” value is on record as 2.42. Besides, the “inhibition of major CYP enzymes” value in series [1] is given as “does not significantly inhibit”. Further, in series [2], the “CYP enzymes that appear to metabolize metaxalone” value was “CYP1A2, CYP2D6, CYP2E1, and CYP3A4 and, to a lesser extent, CYP2C8, CYP2C9, and CYP2FC19”. Also, the “induction of major CYP enzymes” value in series [3] is “does not significantly induce”. Further, for the setting “in 96% ethanol”, the solubility entry is given as “soluble”. Moreover, the solubility entry (in chloroform) was “freely soluble”. For the same molecule, the solubility result (in ether) is reported as “practically insoluble”. Where the note is “in methanol”, the solubility result was “soluble”. Besides, for the setting “in water”, the solubility result is listed as “practically insoluble”.
